Values quoted from earlier work as cited in patent US20100160456A1 (priority 2007, published 2010).

Conditions: incidence grade
In the case of `CCCOC(=O)Cc1ccc(OCC(=O)N(CC)CC)c(OC)c1` [PRPN, Propanidine], the Excitation is listed as “+”, the Latency is listed as “+” and the “Nausea & vomiting” value is listed as “++”. In the case of `CC(=O)NS(=O)(=O)c1ccc(N)cc1` [KET, Cetamide], the Delirium is given as “+++”, the Excitation is given as “+++” and the Latency is given as “+”. For the same compound, the “Nausea & vomiting” value was “+”. For `CC(C)c1cccc(C(C)C)c1O` [Propofol, 2,6-diisopropylphenol], the Awakening is given as “+”, the Injection-related pain is given as “+++” and the Latency is given as “++”. For Althesin [ALTS], the Awakening is given as “+”, the Excitation is given as “+” and the Latency is given as “+”. The “Nausea & vomiting” value was “+”. In the case of `CCOC(=O)c1cncn1[C@H](C)c1ccccc1` [ETOM, Etomidate], the Delirium is given as “+”, the Excitation is given as “++” and the Injection-related pain is given as “+”. For the same compound, the Latency was “+” and the “Nausea & vomiting” value was “+”. In the case of `CCCC(C)C1(CC)C(=O)NC(=S)NC1=O` (stereo not shown) [TIOP, Thiopental], the Awakening is given as “+”, the Injection-related pain is given as “+” and the Latency is given as “++”. For `C=CCC1(C(C)C#CCC)C(=O)N=C(O)N(C)C1=O` (stereo not shown) [MTOX, Methohexital], the Awakening is given as “+”, the Excitation is given as “+” and the Injection-related pain is given as “+”. The Latency was “++”.

Conditions: after being injected with Propofol
In the case of `CC(C)c1cccc(C(C)C)c1O` [Propofol, 2,6-diisopropylphenol], the “patients with a rejection to the acute pain after injection” value is given as 80%.

Conditions: known emulsion
For `CC(C)c1cccc(C(C)C)c1O` [Propofol, 2,6-diisopropylphenol], the “shelf-life of the product once the ampoule is opened” value is given as “approximately 8 hours”.
